Test systems include HOP-92 NSCLC; RXF 393 renal; SK-MEL-28 melanoma; OVCAR-8 ovarian; IGROV1 ovarian; RPMI-8226 leukemia; HCC-2998 colon; NCI-H23 lung; UO-31 renal; NCI-H226 lung.
What all share (test): NCI anticancer screen, dose series, 48 h

Molecules are shown by their SMILES.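 Grown in 96-well plates, cells were treated for 48 hours with each compound at five concentrations. Insufficient inhibition: endpoint recorded as highest concentration tested. GI50 marks 50% less growth. TGI denotes the concentration required for complete inhibition of growth.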

Turning to `N#CC(C#N)c1ccc(C(=O)N2CCC[C@H]2CO)cc1`, the TGI in the experiment with HOP-92 NSCLC, in the experiment with RXF 393 renal, in the experiment with SK-MEL-28 melanoma, with OVCAR-8 ovarian, with IGROV1 ovarian and with RPMI-8226 leukemia was over 100 µM throughout. For the same compound, the TGI in the experiment on HCC-2998 colon, in the experiment with NCI-H23 lung and in the experiment with UO-31 renal was over 100 µM throughout.

In the case of `C=CCN1CC(=O)N2[C@@H](Cc3ccc(O)cc3F)C(=O)N(Cc3cccc(N4CC(N5CCN(CC)CC5)C4)n3)C[C@@H]2N1C(=O)NCc1ccccc1`, the GI50 was 0.0217 µM in the experiment on HOP-92 NSCLC; 0.0461 µM in the experiment on NCI-H226 lung; 0.231 µM in the experiment on RXF 393 renal; 0.0405 µM in the experiment with SK-MEL-28 melanoma; 0.0295 µM with OVCAR-8 ovarian; 0.05 µM in the experiment with RPMI-8226 leukemia. Also, the GI50 in the experiment with HCC-2998 colon was 0.0687 µM; in the experiment on NCI-H23 lung, 0.0756 µM; in the experiment with UO-31 renal, 0.919 µM. Moreover, the TGI in the experiment with HOP-92 NSCLC is 0.0829 µM; in the experiment on NCI-H226 lung it was over 100 µM; with RXF 393 renal it was 6.85 µM; in the experiment on SK-MEL-28 melanoma, over 100 µM; with RPMI-8226 leukemia it was 26.2 µM; with HCC-2998 colon, over 100 µM. In addition, the TGI in the experiment with NCI-H23 lung and in the experiment with UO-31 renal was over 100 µM throughout.

`c1ccc(CCc2cccnc2)nc1`: the TGI in the experiment with HOP-92 NSCLC, in the experiment on NCI-H226 lung, in the experiment on RXF 393 renal, in the experiment on SK-MEL-28 melanoma, with OVCAR-8 ovarian and with IGROV1 ovarian was over 100 µM each time. The TGI with RPMI-8226 leukemia, in the experiment with NCI-H23 lung and in the experiment with UO-31 renal was over 100 µM each time.

Take `COCOCC/C=C/C=O`: the TGI in the experiment on HOP-92 NSCLC, in the experiment on RXF 393 renal, with SK-MEL-28 melanoma, in the experiment with OVCAR-8 ovarian, in the experiment on IGROV1 ovarian and in the experiment with RPMI-8226 leukemia was over 100 µM in each case. Also, the TGI with HCC-2998 colon, in the experiment on NCI-H23 lung and with UO-31 renal was over 100 µM in each case.

Take `COc1cc2c(cc1OCCCCN1CCN(C(=S)SCCC(C#N)(c3ccccc3)c3ccccc3)CC1)N=C[C@@H]1CCCN1C2=O`: the GI50 is 1.07 µM in the experiment on HOP-92 NSCLC; 1.26 µM with NCI-H226 lung; 0.414 µM in the experiment with RXF 393 renal; 1.59 µM with OVCAR-8 ovarian; 0.496 µM in the experiment with RPMI-8226 leukemia; 0.593 µM in the experiment on UO-31 renal. In addition, the TGI in the experiment with HOP-92 NSCLC was 14.3 µM; in the experiment on NCI-H226 lung it was 3.29 µM; in the experiment with RXF 393 renal, 2.01 µM; in the experiment on OVCAR-8 ovarian it was over 100 µM; with RPMI-8226 leukemia it was 2.89 µM; in the experiment with UO-31 renal, 2.09 µM.

For the compound `C[CH2][Sn]([CH2]C)([O]C(=O)c1ccccc1OC)[O][Sn]([CH2]C)([CH2]C)[O]C(=O)c1ccccc1OC`, the GI50 in the experiment on HOP-92 NSCLC was 89.4 µM; in the experiment with NCI-H226 lung, over 100 µM; in the experiment with RXF 393 renal it was 43.3 µM; in the experiment with SK-MEL-28 melanoma, over 100 µM; in the experiment with OVCAR-8 ovarian, over 100 µM; in the experiment with IGROV1 ovarian, over 100 µM. The GI50 with HCC-2998 colon, in the experiment with NCI-H23 lung and with UO-31 renal was over 100 µM each time. Besides, the TGI with HOP-92 NSCLC, in the experiment with NCI-H226 lung, in the experiment on RXF 393 renal, in the experiment on SK-MEL-28 melanoma, in the experiment with OVCAR-8 ovarian and in the experiment with IGROV1 ovarian was over 100 µM each time. The TGI in the experiment with HCC-2998 colon, in the experiment on NCI-H23 lung and with UO-31 renal was over 100 µM each time.

Turning to `Cc1nc(C(=O)O)c2ccccc2n1`, the TGI in the experiment with HOP-92 NSCLC, in the experiment with RXF 393 renal, in the experiment on SK-MEL-28 melanoma, with OVCAR-8 ovarian, in the experiment with IGROV1 ovarian and in the experiment on RPMI-8226 leukemia was over 100 µM in each case. The TGI with HCC-2998 colon, in the experiment with NCI-H23 lung and in the experiment with UO-31 renal was over 100 µM throughout.

Consider `O=c1[nH]cc(F)c(=O)n1C1OC(CO)C(O)C1O` (stereo not drawn), for which the TGI with HOP-92 NSCLC, in the experiment on NCI-H226 lung, with RXF 393 renal, in the experiment with SK-MEL-28 melanoma, with OVCAR-8 ovarian and in the experiment on RPMI-8226 leukemia was over 100 µM throughout. In addition, the TGI in the experiment on HCC-2998 colon, in the experiment on NCI-H23 lung and in the experiment on UO-31 renal was over 100 µM in each case.

As to `COc1ccc(-c2nc(/C=C3\SC(=NCc4ccccc4)NC3=O)c3ccccn23)cc1`, the GI50 is 0.853 µM in the experiment with HOP-92 NSCLC; 2.47 µM in the experiment with NCI-H226 lung; 1.18 µM with RXF 393 renal; 2 µM in the experiment with SK-MEL-28 melanoma; 2.04 µM with OVCAR-8 ovarian; 1.47 µM in the experiment with IGROV1 ovarian. The GI50 with HCC-2998 colon was 1.68 µM; in the experiment with NCI-H23 lung, 1.37 µM; in the experiment with UO-31 renal it was 1.49 µM. In addition, the TGI in the experiment on HOP-92 NSCLC is 3.42 µM; in the experiment with NCI-H226 lung, 10 µM; with RXF 393 renal, 2.97 µM; in the experiment on SK-MEL-28 melanoma, 4.4 µM; with OVCAR-8 ovarian, 8.13 µM; in the experiment with IGROV1 ovarian it was 4.22 µM. Further, the TGI stood at 4.83 µM in the experiment with HCC-2998 colon, 3.51 µM with NCI-H23 lung and 3 µM in the experiment on UO-31 renal.

With `N#CCN1CCn2c1nsc2=S`, the GI50 in the experiment on HOP-92 NSCLC, in the experiment on NCI-H226 lung, in the experiment on RXF 393 renal, with SK-MEL-28 melanoma, with OVCAR-8 ovarian and in the experiment on IGROV1 ovarian was over 100 µM in each case. The GI50 with RPMI-8226 leukemia is over 100 µM; in the experiment with UO-31 renal it was 44.8 µM. The TGI in the experiment on HOP-92 NSCLC, in the experiment on NCI-H226 lung, in the experiment with RXF 393 renal, in the experiment on SK-MEL-28 melanoma, with OVCAR-8 ovarian and with IGROV1 ovarian was over 100 µM each time. Further, the TGI in the experiment on RPMI-8226 leukemia and with UO-31 renal was over 100 µM each time.

Regarding `c1ccc2cc(-c3n(Cc4ccc5ccccc5n4)c4ccccc4[n+]3Cc3ccc4ccccc4n3)ccc2c1`, the GI50 in the experiment on HOP-92 NSCLC was 0.136 µM; in the experiment on RXF 393 renal, 0.245 µM; in the experiment with SK-MEL-28 melanoma, 0.423 µM; in the experiment on OVCAR-8 ovarian, 0.297 µM; in the experiment on IGROV1 ovarian it was 0.29 µM; with RPMI-8226 leukemia, 0.0802 µM. Besides, the GI50 in the experiment on HCC-2998 colon is 0.344 µM; with NCI-H23 lung, 0.285 µM; in the experiment on UO-31 renal it was 1.34 µM. Also, the TGI in the experiment with HOP-92 NSCLC was determined as 0.517 µM; with RXF 393 renal it was 1.24 µM; in the experiment on SK-MEL-28 melanoma, 1.65 µM; in the experiment with OVCAR-8 ovarian, 1.22 µM; with IGROV1 ovarian it was 1.28 µM; with RPMI-8226 leukemia, 0.52 µM. The TGI in the experiment with HCC-2998 colon was found to be 1.46 µM; in the experiment with NCI-H23 lung, 1.09 µM; in the experiment on UO-31 renal it was 2.66 µM.

As for `CC1(C)CC(=O)C(/C(=N/NC(=S)NN)C(=O)Nc2nc3ccc([N+](=O)[O-])cc3s2)C(=O)C1`, the TGI in the experiment on HOP-92 NSCLC, in the experiment with NCI-H226 lung, in the experiment on RXF 393 renal, with SK-MEL-28 melanoma, in the experiment on OVCAR-8 ovarian and in the experiment on IGROV1 ovarian was over 100 µM throughout. The TGI in the experiment on HCC-2998 colon, in the experiment on NCI-H23 lung and in the experiment with UO-31 renal was over 100 µM throughout.

Take `Cc1cc(C)nc(NS(=O)(=O)c2ccc(Nc3c4ccccc4nc4c(C(=O)Nc5ccc(S(=O)(=O)N=C(N)N)cc5)cccc34)cc2)n1`: the TGI is over 100 µM with HOP-92 NSCLC; 85.1 µM in the experiment with RXF 393 renal; over 100 µM in the experiment on SK-MEL-28 melanoma; over 100 µM in the experiment on OVCAR-8 ovarian; over 100 µM in the experiment on IGROV1 ovarian; over 100 µM in the experiment with RPMI-8226 leukemia. In addition, the TGI in the experiment with HCC-2998 colon, with NCI-H23 lung and with UO-31 renal was over 100 µM each time.

For `O=C(CCCCCCN1CC(=O)N2[C@@H](c3ccc(Cl)c(Cl)c3)c3[nH]c4ccccc4c3C[C@H]2C1=O)NO`, the GI50 in the experiment with HOP-92 NSCLC was 1.59 µM; in the experiment with NCI-H226 lung, 4.52 µM; in the experiment on RXF 393 renal, 1.73 µM; with SK-MEL-28 melanoma it was 3.54 µM; in the experiment on OVCAR-8 ovarian it was 2.82 µM; in the experiment on IGROV1 ovarian it was 1.32 µM. Besides, the GI50 was 3.9 µM in the experiment with HCC-2998 colon, 4.73 µM in the experiment on NCI-H23 lung and 3.52 µM in the experiment with UO-31 renal. The TGI amounted to 7.41 µM in the experiment on HOP-92 NSCLC; 12.2 µM with NCI-H226 lung; 6.04 µM with RXF 393 renal; 9.52 µM with SK-MEL-28 melanoma; 17.9 µM in the experiment on OVCAR-8 ovarian; 5.07 µM with IGROV1 ovarian. The TGI in the experiment on HCC-2998 colon is 8.38 µM; with NCI-H23 lung it was 13.5 µM; in the experiment with UO-31 renal, 8.86 µM.

As for `COc1ncnc(NS(=O)(=O)c2ccc(N=C3C(=O)N(CN4CCN(c5c(F)cc6c(=O)c(C(=O)O)cn(C7CC7)c6c5OC)CC4C)c4ccc(Br)cc43)cc2)c1OC` (stereo not drawn), the GI50 with HOP-92 NSCLC was 0.176 µM; in the experiment with NCI-H226 lung, 15.3 µM; in the experiment with RXF 393 renal, 12.9 µM; in the experiment on SK-MEL-28 melanoma, over 50 µM; in the experiment with OVCAR-8 ovarian it was 15.3 µM; with IGROV1 ovarian, 17.3 µM. The figures for the GI50 in the experiment on RPMI-8226 leukemia, with NCI-H23 lung and with UO-31 renal were 5.54 µM, 8.79 µM and over 50 µM, respectively. Also, the TGI with HOP-92 NSCLC is 0.477 µM; with NCI-H226 lung, over 50 µM; in the experiment with RXF 393 renal, 33 µM; with SK-MEL-28 melanoma it was over 50 µM; in the experiment with OVCAR-8 ovarian, over 50 µM; in the experiment with IGROV1 ovarian, over 50 µM. The TGI in the experiment with RPMI-8226 leukemia was 22.3 µM; with NCI-H23 lung, 27 µM; in the experiment with UO-31 renal it was over 50 µM.
